Our source for the IC50 values is patent US20170240539A1, “Preparation and Use of Cyclic Sulfonamide Derivatives as PAR-1 Receptor Antagonists” (MERCK SHARP & DOHME CORP., priority 2014, published 2017).

The experiment addresses T1, PAR-1 receptor (Homo sapiens, UniProt P25116).
T1 construct: endogenous in cells; host or cells: HEK 293
T1 sequence (P25116 22-425): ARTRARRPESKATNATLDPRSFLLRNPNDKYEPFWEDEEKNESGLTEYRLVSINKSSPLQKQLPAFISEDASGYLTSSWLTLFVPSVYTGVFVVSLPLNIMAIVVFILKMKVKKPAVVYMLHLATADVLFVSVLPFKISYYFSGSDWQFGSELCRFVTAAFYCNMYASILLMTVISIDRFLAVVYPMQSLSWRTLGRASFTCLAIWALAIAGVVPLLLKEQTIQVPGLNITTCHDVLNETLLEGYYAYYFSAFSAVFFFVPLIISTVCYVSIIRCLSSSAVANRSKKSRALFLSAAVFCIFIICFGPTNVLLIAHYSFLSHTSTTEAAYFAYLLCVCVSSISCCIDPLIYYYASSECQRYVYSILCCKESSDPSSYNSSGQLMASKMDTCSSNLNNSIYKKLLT
The experiment can be described thus: PAR-1 FLIPR Assay. It counts as cell-based. The settings on record: HEK 293 cells, FLIPR calcium-5 dye; inhibition of signal from PAR1 selective receptor-activating peptide at 80% activation concentration (1.4-2.0 uM); compound incubated 30 minutes at 25 degrees. The protocol:
The following assay was used to determine the ability of the inventive compounds to inhibit the PAR-1 receptor.
HEK 293 Cells are grown in media containing DMEM, 10% FBS pen/strep/L-Glutamine and non-essential amino acids. The cells are plated in 384-well PDL coated plates at 12000 cells/well and incubated overnight at 37° C./5% CO2. Media is then removed from the cells, which are then incubated with buffer (Hank's containing HEPES and Chaps) containing FLIPR calcium-5 dye, made with buffer containing probenecid, for 60 minutes at 37° C. Varying concentrations of compound in a final concentration of 5% DMSO are then added to the cells and incubated at 25 degrees for 30 minutes. The plates are then added to a FLIPR Tetra cellular screening system and the device adds a concentration of a PAR1 selective receptor-activating peptide with the sequence Ala-parafluoroPhe-Arg-Cha-Cit-Tyr-NH2 (SEQ ID NO: 3) (prepared in water) at a concentration equal to the effective concentration that achieves 80% activation of signaling on the day of the experiment. The range is from 1.4-2.0 uM peptide. The FLIPR reads at an excitation wavelength of 480 nm and an emission wavelength of 535 nm, and performs 60 scans over a 1-2 min reading time. The data are analyzed by taking the peak signal over a portion of the range of the 60 scans and dividing this signal by the minimum signal for that same range. The data are expressed as percent inhibition of the maximum divided by the minimum signal achieved at 80% activation produced by the PAR1 activating peptide on the test day.
`COc1ncccc1-c1ccc(/C=C/[C@@H]2[C@@H]3[C@@H](C)NS(=O)(=O)[C@@]3(CC(N)=O)CC(F)(F)[C@H]2C)nc1` [Example 22, 2-((3R,3aR,4S,5S,7aS)-6,6-difluoro-4-((E)-2-(2′-methoxy-[3,3′-bipyridin]-6-yl)vinyl)-3,5-dimethyl-1,1-dioxidooctahydrobenzo[d]isothiazol-7a-yl)acetamide]: the IC50 came out at 337 nM.
For `C[C@H]1NS(=O)(=O)[C@]2(CC(N)=O)CC(F)(F)[C@@H](C)[C@H](/C=C/c3ccc(-c4ccccc4C#N)cn3)[C@H]12` [Example 23, 2-((3R,3aR,4S,5S,7aR)-4-((E)-2-(5-(2-cyanophenyl)pyridin-2-yl)vinyl)-6,6-difluoro-3,5-dimethyl-1,1-dioxidooctahydrobenzo[d]isothiazol-7a-yl)acetamide], the IC50 came out at 3 nM.
The figure for `C[C@H]1NS(=O)(=O)[C@]2(CC(N)=O)CC(F)(F)[C@@H](C)[C@H](/C=C/c3ccc(-c4cccnc4C#N)cn3)[C@H]12` [Example 24, 2-((3R,3aR,4S,5S,7aR)-6,6-difluoro-4-((E)-2-(2′-cyano-[3,3′-bipyridin]-6-yl)vinyl)-3,5-dimethyl-1,1-dioxidooctahydrobenzo[d]isothiazol-7a-yl)acetamide] is 89 nM; for `C[C@H]1NS(=O)(=O)[C@]2(CC(=O)O)CC(F)(F)[C@@H](C)[C@H](/C=C/c3ccc(-c4ccccc4C#N)cn3)[C@H]12` [Example 25, 2-((3R,3aR,4S,5S,7aR)-4-((E)-2-(5-(2-cyanophenyl)pyridin-2-yl)vinyl)-6,6-difluoro-3,5-dimethyl-1,1-dioxidooctahydrobenzo[d]isothiazol-7a-yl)acetic acid] it is 12 nM.
The figure for `CCOC(=O)C[C@@]12CC(F)(F)[C@@H](C)[C@H](/C=C/c3ccc(-c4ccccc4C#N)cn3)[C@@H]1[C@@H](C)N(C(=O)OC(C)(C)C)S2(=O)=O` [Example 26] is 54 nM; for `CC[C@@H]1CC[C@@H]2[C@H]([C@H]1/C=C/c1ccc(-c3ccccc3C#N)cn1)[C@@H](C)N(C)S2(=O)=O` [Example 27, 2-(6-((E)-2-((3R,3aR,4R,5R,7aR)-5-ethyl-2,3-dimethyl-1,1-dioxidooctahydrobenzo[d]isothiazol-4-yl)vinyl)pyridin-3-yl)benzonitrile] it is 13 nM.
The figure for `CCOC(=O)N1[C@H](C)[C@H]2[C@@H](/C=C/c3ccc(-c4ccccc4C#N)cn3)[C@H](CC)CC[C@H]2S1(=O)=O` [Example 28, (3R,3aR,4R,5R,7aR)-ethyl 4-((E)-2-(5-(2-cyanophenyl)pyridin-2-yl)vinyl)-5-ethyl-3-methylhexahydrobenzo[d]isothiazole-2(3H)-carboxylate 1,1-dioxide] is 325 nM.
For the molecule `CC[C@@H]1CC[C@@H]2[C@H]([C@H]1/C=C/c1ccc(-c3ccccc3C#N)cn1)[C@@H](C)N(CCO)S2(=O)=O` [Example 29, 2-(6-((E)-2-((3R,3aR,4R,5R,7aR)-5-ethyl-2-(2-hydroxyethyl)-3-methyl-1,1-dioxidooctahydrobenzo[d]isothiazol-4-yl)vinyl)pyridin-3-yl)benzonitrile], the IC50 turned out to be 540 nM.
